What was measured:
myrosinase = test: Equimolar conversion of glucoraphanin to sulforaphane by myrosinase, HPLC (Example 4); type: biochemical, broccoli
Experimental: A two-part experiment was conducted to further elucidate the role of ascorbic acid in modulating myrosinase activity. All solutions were prepared in 20 mM Tris-buffered saline, at pH 7.5, previously identified as an optimal for myrosinase activity; each sample tube had 100 mg of freeze-dried broccoli powder accurately weighed in as a source of myrosinase. Experiment was conducted at 38° C. for 2 hours, with sample aliquots removed in 30-minute increments, and both glucoraphanin and sulforaphane content assessed by HPLC. […] A control sample contained no ascorbic acid, and the enzymatic conversion proceeded unassisted by a co-factor. PART 1. In the presence of the fixed concentration of ascorbic acid, 1 mmol/Liter, an increasing amount of broccoli seed extract (about 12% glucoraphanin, w/w) was added, ranging from 250 mg to 500 mg. PART 2. While keeping the amount of broccoli seed extract fixed at 250 mg, the concentration of ascorbic acid was varied from 0.4 mmol/Liter to 3.8 mmol/Liter.

[1] = system: broccoli sprout-derived myrosinase; test: Consumption of glucoraphanin by myrosinase as a function of ascorbic acid concentration (Example 3); type: biochemical
Experimental: A […] Interaction Chromatographic (HILIC) method was developed, comprising the following conditions: • Column: Waters BEH Amide, 1.7-μm particle size; 2.1 mm×100 mm; • Mobile Phase: 20% 10 mM Ammonium Acetate, pH 5.0; 80% acetonitrile; • Separation mode: isocratic; • Column Temperature: 70° C.; • Flow Rate: 0.7 mL/min.
About 250 mg of broccoli seed extract containing about 12% (w/w) glucoraphanin were subjected to hydrolysis by a fixed concentration of broccoli sprout-derived myrosinase in the presence of variable concentration of ascorbic acid, ranging from 0 to 600 μmoles/Liter. The reaction mixtures were thermostated at 38° C.; aliquots were withdrawn every 15 minutes for 60 minutes, and concentration of glucoraphanin determined chromatographically. The rate of glucoraphanin consumption was interpreted as the rate its conversion to sulforaphane. Graphical representation of glucoraphanin content reduction as a function of increasing ascorbic acid concentration results in a series of linear plots; the slopes of the linear regression lines reflect the rate of glucoraphanin consumption, in pmoles/minute. It is apparent that in the presence of 600 μmoles/Liter concentration of ascorbic acid, the reaction rate increased 13-fold relative to that which proceeded in the absence of modulatory effects of ascorbic acid.

[2] = GR 250 mg AA 0.0 mM (control), 0 min
[3] = GR 250 mg AA 0.0 mM (control), 30 min
[4] = GR 250 mg AA 0.0 mM (control), 60 min
[5] = GR 250 mg AA 0.0 mM (control), 90 min
[6] = GR 250 mg AA 0.0 mM (control), 120 min
[7] = PART 1, GR 250 mg AA 1.0 mM, 0 min
[8] = PART 2, GR 250 mg AA 1.0 mM, 0 min

C[S+]([O-])CCCC/C(=N\OS(=O)(=O)O)S[C@@H]1O[C@H](CO)[C@@H](O)[C@H](O)[C@H]1O (some centres unmarked) [GR, 4-methylsulfinylbutyl glucosinolate]
Glucoraphanin (myrosinase; [2]): 58.02 µmol
Sulforaphane (myrosinase; [2]): 3.42 µmol
Glucoraphanin (myrosinase; [3]): 48.57 µmol
Sulforaphane (myrosinase; [3]): 12.08 µmol
Glucoraphanin (myrosinase; [4]): 37.52 µmol
Sulforaphane (myrosinase; [4]): 22.27 µmol
Glucoraphanin (myrosinase; [5]): 28.58 µmol
Sulforaphane (myrosinase; [5]): 33.17 µmol
Glucoraphanin (myrosinase; [6]): 15.67 µmol
Sulforaphane (myrosinase; [6]): 42.89 µmol
Glucoraphanin (myrosinase; GR 250 mg AA 0.4 mM, 0 min): 45.66 µmol
Sulforaphane (myrosinase; GR 250 mg AA 0.4 mM, 0 min): 15.96 µmol
Sulforaphane (myrosinase; GR 250 mg AA 0.4 mM, 30 min): 62.06 µmol
Sulforaphane (myrosinase; GR 250 mg AA 0.4 mM, 60 min): 61.01 µmol
Sulforaphane (myrosinase; GR 250 mg AA 0.4 mM, 90 min): 60.88 µmol
Sulforaphane (myrosinase; GR 250 mg AA 0.4 mM, 120 min): 56.90 µmol
Glucoraphanin (myrosinase; GR 250 mg AA 2.0 mM, 0 min): 24.94 µmol
Sulforaphane (myrosinase; GR 250 mg AA 2.0 mM, 0 min): 36.05 µmol
Sulforaphane (myrosinase; GR 250 mg AA 2.0 mM, 30 min): 60.85 µmol
Sulforaphane (myrosinase; GR 250 mg AA 2.0 mM, 60 min): 59.78 µmol
Sulforaphane (myrosinase; GR 250 mg AA 2.0 mM, 90 min): 59.85 µmol
Sulforaphane (myrosinase; GR 250 mg AA 2.0 mM, 120 min): 58.08 µmol
Glucoraphanin (myrosinase; GR 250 mg AA 2.9 mM, 0 min): 22.24 µmol
Sulforaphane (myrosinase; GR 250 mg AA 2.9 mM, 0 min): 38.20 µmol
Sulforaphane (myrosinase; GR 250 mg AA 2.9 mM, 30 min): 59.95 µmol
Sulforaphane (myrosinase; GR 250 mg AA 2.9 mM, 60 min): 59.34 µmol
Sulforaphane (myrosinase; GR 250 mg AA 2.9 mM, 90 min): 58.77 µmol
Sulforaphane (myrosinase; GR 250 mg AA 2.9 mM, 120 min): 56.99 µmol
Glucoraphanin (myrosinase; GR 250 mg AA 3.8 mM, 0 min): 21.70 µmol
Sulforaphane (myrosinase; GR 250 mg AA 3.8 mM, 0 min): 37.87 µmol
Sulforaphane (myrosinase; GR 250 mg AA 3.8 mM, 30 min): 58.77 µmol
Sulforaphane (myrosinase; GR 250 mg AA 3.8 mM, 60 min): 57.79 µmol
Sulforaphane (myrosinase; GR 250 mg AA 3.8 mM, 90 min): 58.41 µmol
Sulforaphane (myrosinase; GR 250 mg AA 3.8 mM, 120 min): 56.17 µmol
Glucoraphanin (myrosinase; GR 300 mg AA 1.0 mM, 0 min): 49.31 µmol
Sulforaphane (myrosinase; GR 300 mg AA 1.0 mM, 0 min): 24.18 µmol
Sulforaphane (myrosinase; GR 300 mg AA 1.0 mM, 30 min): 74.40 µmol
Sulforaphane (myrosinase; GR 300 mg AA 1.0 mM, 60 min): 73.04 µmol
Sulforaphane (myrosinase; GR 300 mg AA 1.0 mM, 90 min): 72.19 µmol
Sulforaphane (myrosinase; GR 300 mg AA 1.0 mM, 120 min): 70.56 µmol
Glucoraphanin (myrosinase; GR 350 mg AA 1.0 mM, 0 min): 61.41 µmol
Sulforaphane (myrosinase; GR 350 mg AA 1.0 mM, 0 min): 25.00 µmol
Sulforaphane (myrosinase; GR 350 mg AA 1.0 mM, 30 min): 84.92 µmol
Sulforaphane (myrosinase; GR 350 mg AA 1.0 mM, 60 min): 84.02 µmol
Sulforaphane (myrosinase; GR 350 mg AA 1.0 mM, 90 min): 83.19 µmol
Sulforaphane (myrosinase; GR 350 mg AA 1.0 mM, 120 min): 80.02 µmol
Glucoraphanin (myrosinase; GR 400 mg AA 1.0 mM, 0 min): 71.35 µmol
Sulforaphane (myrosinase; GR 400 mg AA 1.0 mM, 0 min): 26.71 µmol
Glucoraphanin (myrosinase; GR 400 mg AA 1.0 mM, 30 min): 1.56 µmol
Sulforaphane (myrosinase; GR 400 mg AA 1.0 mM, 30 min): 96.60 µmol
Sulforaphane (myrosinase; GR 400 mg AA 1.0 mM, 60 min): 95.38 µmol
Sulforaphane (myrosinase; GR 400 mg AA 1.0 mM, 90 min): 93.39 µmol
Sulforaphane (myrosinase; GR 400 mg AA 1.0 mM, 120 min): 91.16 µmol
Glucoraphanin (myrosinase; GR 500 mg AA 1.0 mM, 0 min): 89.41 µmol
Sulforaphane (myrosinase; GR 500 mg AA 1.0 mM, 0 min): 33.52 µmol
Glucoraphanin (myrosinase; GR 500 mg AA 1.0 mM, 30 min): 1.01 µmol
Sulforaphane (myrosinase; GR 500 mg AA 1.0 mM, 30 min): 120.16 µmol
Sulforaphane (myrosinase; GR 500 mg AA 1.0 mM, 60 min): 116.45 µmol
Sulforaphane (myrosinase; GR 500 mg AA 1.0 mM, 90 min): 118.45 µmol
Sulforaphane (myrosinase; GR 500 mg AA 1.0 mM, 120 min): 112.34 µmol
Glucoraphanin (myrosinase; [7]): 40.07 µmol
Sulforaphane (myrosinase; [7]): 21.51 µmol
Sulforaphane (myrosinase; PART 1, GR 250 mg AA 1.0 mM, 30 min): 61.95 µmol
Sulforaphane (myrosinase; PART 1, GR 250 mg AA 1.0 mM, 60 min): 60.20 µmol
Sulforaphane (myrosinase; PART 1, GR 250 mg AA 1.0 mM, 90 min): 60.04 µmol
Sulforaphane (myrosinase; PART 1, GR 250 mg AA 1.0 mM, 120 min): 58.25 µmol
Glucoraphanin (myrosinase; [8]): 35.24 µmol
Sulforaphane (myrosinase; [8]): 26.49 µmol
Sulforaphane (myrosinase; PART 2, GR 250 mg AA 1.0 mM, 30 min): 62.19 µmol
Sulforaphane (myrosinase; PART 2, GR 250 mg AA 1.0 mM, 60 min): 60.62 µmol
Sulforaphane (myrosinase; PART 2, GR 250 mg AA 1.0 mM, 90 min): 60.41 µmol
Sulforaphane (myrosinase; PART 2, GR 250 mg AA 1.0 mM, 120 min): 59.10 µmol
time to complete conversion of glucoraphanin to sulforaphane (myrosinase; almost all the reaction mixtures): ≤ 30 min
stoichiometry of conversion of glucoraphanin to sulforaphane (myrosinase; control sample, without ascorbic acid): equimolar conversion of glucoraphanin to sulforaphane
Slope (rate of glucoraphanin consumption) ([1]; ascorbic acid 0 μM): -0.09293 µmol/min
Glucoraphanin content (μmoles GR) ([1]; ascorbic acid 0 μM, 0 min): 93.36 µmol
Glucoraphanin content (μmoles GR) ([1]; ascorbic acid 0 μM, 15 min): 92.24 µmol
Glucoraphanin content (μmoles GR) ([1]; ascorbic acid 0 μM, 30 min): 90.71 µmol
Glucoraphanin content (μmoles GR) ([1]; ascorbic acid 0 μM, 45 min): 89.44 µmol
Glucoraphanin content (μmoles GR) ([1]; ascorbic acid 0 μM, 60 min): 87.79 µmol
Slope (rate of glucoraphanin consumption) ([1]; ascorbic acid 50 μM): -0.286 µmol/min
Glucoraphanin content (μmoles GR) ([1]; ascorbic acid 50 μM, 0 min): 93.36 µmol
Glucoraphanin content (μmoles GR) ([1]; ascorbic acid 50 μM, 15 min): 89.20 µmol
Glucoraphanin content (μmoles GR) ([1]; ascorbic acid 50 μM, 30 min): 84.24 µmol
Glucoraphanin content (μmoles GR) ([1]; ascorbic acid 50 μM, 45 min): 80.30 µmol
Glucoraphanin content (μmoles GR) ([1]; ascorbic acid 50 μM, 60 min): 76.36 µmol
Slope (rate of glucoraphanin consumption) ([1]; ascorbic acid 125 μM): -0.5622 µmol/min
Glucoraphanin content (μmoles GR) ([1]; ascorbic acid 125 μM, 0 min): 93.36 µmol
Glucoraphanin content (μmoles GR) ([1]; ascorbic acid 125 μM, 15 min): 84.52 µmol
Glucoraphanin content (μmoles GR) ([1]; ascorbic acid 125 μM, 30 min): 75.92 µmol
Glucoraphanin content (μmoles GR) ([1]; ascorbic acid 125 μM, 45 min): 68.09 µmol
Glucoraphanin content (μmoles GR) ([1]; ascorbic acid 125 μM, 60 min): 59.41 µmol
Slope (rate of glucoraphanin consumption) ([1]; ascorbic acid 250 μM): -0.7901 µmol/min
Slope (rate of glucoraphanin consumption) ([1]; ascorbic acid 250 μM Filtered): -0.4714 µmol/min
Glucoraphanin content (μmoles GR) ([1]; ascorbic acid 250 μM Filtered, 0 min): 93.36 µmol
Glucoraphanin content (μmoles GR) ([1]; ascorbic acid 250 μM Filtered, 15 min): 86.31 µmol
Glucoraphanin content (μmoles GR) ([1]; ascorbic acid 250 μM Filtered, 30 min): 79.44 µmol
Glucoraphanin content (μmoles GR) ([1]; ascorbic acid 250 μM Filtered, 45 min): 71.94 µmol
Glucoraphanin content (μmoles GR) ([1]; ascorbic acid 250 μM Filtered, 60 min): 65.18 µmol
Glucoraphanin content (μmoles GR) ([1]; ascorbic acid 250 μM, 0 min): 93.36 µmol
Glucoraphanin content (μmoles GR) ([1]; ascorbic acid 250 μM, 15 min): 80.95 µmol
Glucoraphanin content (μmoles GR) ([1]; ascorbic acid 250 μM, 30 min): 69.06 µmol
Glucoraphanin content (μmoles GR) ([1]; ascorbic acid 250 μM, 45 min): 57.63 µmol
Glucoraphanin content (μmoles GR) ([1]; ascorbic acid 250 μM, 60 min): 45.76 µmol
Slope (rate of glucoraphanin consumption) ([1]; ascorbic acid 400 μM): -1.007 µmol/min
Glucoraphanin content (μmoles GR) ([1]; ascorbic acid 400 μM, 0 min): 93.36 µmol
Glucoraphanin content (μmoles GR) ([1]; ascorbic acid 400 μM, 15 min): 78.32 µmol
Glucoraphanin content (μmoles GR) ([1]; ascorbic acid 400 μM, 30 min): 62.78 µmol
Glucoraphanin content (μmoles GR) ([1]; ascorbic acid 400 μM, 45 min): 47.67 µmol
Glucoraphanin content (μmoles GR) ([1]; ascorbic acid 400 μM, 60 min): 33.15 µmol
Slope (rate of glucoraphanin consumption) ([1]; ascorbic acid 600 μM): -1.2 µmol/min
Glucoraphanin content (μmoles GR) ([1]; ascorbic acid 600 μM, 0 min): 93.36 µmol
Glucoraphanin content (μmoles GR) ([1]; ascorbic acid 600 μM, 15 min): 75.02 µmol
Glucoraphanin content (μmoles GR) ([1]; ascorbic acid 600 μM, 30 min): 55.66 µmol
Glucoraphanin content (μmoles GR) ([1]; ascorbic acid 600 μM, 45 min): 37.50 µmol
Glucoraphanin content (μmoles GR) ([1]; ascorbic acid 600 μM, 60 min): 22.09 µmol

Reference: US12648979B2, “Compositions comprising sulforaphane or a sulforaphane precursor and Moringa plant components” (Nutramax Laboratories, Inc., priority 2021, dated 2026)
